# PubChem BioAssay (NCI)
#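 All cell lines were grown in 96-well plates and treated with compound for 48 hours. GI50 marks 50% less growth. The concentration for full growth arrest is given as TGI.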
# Columns and labels:
# Experiment in all cases: inhibition of tumour cell growth, NCI panel, 48 h
# MCF7 breast = test system: MCF7 breast
# SF-539 CNS = test system: SF-539 CNS
# ACHN renal = test system: ACHN renal
# SN12C renal = test system: SN12C renal
# SK-MEL-28 melanoma = test system: SK-MEL-28 melanoma
# HCT-15 colon = test system: HCT-15 colon
# NCI-H226 lung = test system: NCI-H226 lung
# HCT-116 colon = test system: HCT-116 colon
# U251 CNS = test system: U251 CNS
# NCI/ADR-RES ovarian = test system: NCI/ADR-RES ovarian
SMILES,GI50 (MCF7 breast),TGI (MCF7 breast),GI50 (SF-539 CNS),TGI (SF-539 CNS),GI50 (ACHN renal),TGI (ACHN renal),GI50 (SN12C renal),TGI (SN12C renal),GI50 (SK-MEL-28 melanoma),TGI (SK-MEL-28 melanoma),GI50 (HCT-15 colon),TGI (HCT-15 colon),GI50 (NCI-H226 lung),TGI (NCI-H226 lung),TGI (HCT-116 colon),TGI (U251 CNS),GI50 (HCT-116 colon),GI50 (U251 CNS),GI50 (NCI/ADR-RES ovarian),TGI (NCI/ADR-RES ovarian)
CCCCCCN1C(=O)/C(=c2\sc3n(c2=O)C2C(NN=3)N(CC)C(=O)N2CC)c2ccccc21 (stereo not given),1.73 µM,> 50 µM,0.831 µM,1.59 µM,1.51 µM,> 50 µM,2.74 µM,> 50 µM,2.09 µM,> 50 µM,1.62 µM,> 50 µM,–,–,–,–,–,–,–,–
OCCN(CO)CN(CN(CO)CCO)c1nc(N(CN(CO)CCO)CN(CO)CCO)nc(N(CN(CO)CCO)CN(CO)CCO)n1,0.55 ng/mL,0.901 ng/mL,1.42 ng/mL,3.91 ng/mL,1.73 ng/mL,6.27 ng/mL,1.49 ng/mL,6.06 ng/mL,1.05 ng/mL,1.88 ng/mL,–,–,1.25 ng/mL,2.72 ng/mL,–,–,–,–,–,–
CC1CCC2(OC1)OC1CC3C4CC=C5CC(OC6OC(CO)C(OC7OC(C)C(OC8OC(C)C(O)C(O)C8O)C(O)C7O)C(O)C6OC6OC(C)C(O)C(O)C6O)CCC5(C)C4CCC3(C)C1C2C (stereo not given),–,3.25 µM,–,1.52 µM,–,2.79 µM,–,1.04 µM,–,1.85 µM,–,2.92 µM,–,2.86 µM,1.92 µM,1.96 µM,–,–,–,–
COC(=O)c1nc(-c2ccc(Cl)c(Cl)c2)nc2ccccc12,–,–,–,> 61.3 µM,–,> 100 µM,–,> 100 µM,–,> 100 µM,–,> 100 µM,–,78.1 µM,> 100 µM,> 100 µM,–,–,–,–
O=[N+]([O-])c1cccc(-c2nc3sccn3c2-c2ccnc(NCCCNS(=O)(=O)c3ccc(F)cc3)n2)c1,–,–,3.61 µM,> 100 µM,2.19 µM,10.8 µM,2.61 µM,> 100 µM,2.75 µM,7.92 µM,2.08 µM,9.79 µM,1.95 µM,7.6 µM,> 100 µM,> 100 µM,2.85 µM,3.73 µM,1.85 µM,7.31 µM
Cc1ccc2sc3cc(=O)cc(C)c-3nc2c1,–,–,–,> 100 µM,–,> 100 µM,–,> 100 µM,–,> 100 µM,–,> 100 µM,–,> 100 µM,> 100 µM,> 100 µM,–,–,–,–
COc1cc2c(/C=C3/C(=O)Nc4ccccc43)c(Cl)n(Cc3ccccc3)c2cc1C,> 100 µM,> 100 µM,> 100 µM,> 100 µM,> 100 µM,> 100 µM,> 100 µM,> 100 µM,–,–,> 100 µM,> 100 µM,> 100 µM,> 100 µM,> 100 µM,> 100 µM,> 100 µM,> 100 µM,> 100 µM,> 100 µM
Cc1cc2c(C(C)C)c(O)c(O)c3coc(/c1=c1/c(C)cc4c(C(C)C)c(=O)c(=O)c5coc1c45)c32,–,–,–,12.9 µM,–,12.3 µM,–,23.7 µM,–,22.2 µM,–,15.6 µM,–,22.9 µM,10.8 µM,14.3 µM,–,–,–,–
CC(=O)/C=C1/c2ccccc2N(C(C)=O)C1O (stereo not given),–,–,–,> 100 µM,–,> 100 µM,–,> 100 µM,–,> 100 µM,–,> 100 µM,–,–,> 100 µM,> 100 µM,–,–,–,–
